From PubChem BioAssay (NCI)
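Cultured in 96-well plates, cells were exposed to test compound for 48 hours across five concentrations. GI50 is the concentration that inhibits growth by half. At the TGI there is no net growth.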

Key:
Test in all cases: NCI anticancer screen, dose series, 48 h
UO-31 renal = test system: UO-31 renal
PC-3 prostate = test system: PC-3 prostate
HOP-62 NSCLC = test system: HOP-62 NSCLC
MCF7 breast = test system: MCF7 breast
SR leukemia = test system: SR leukemia
DU-145 prostate = test system: DU-145 prostate
SF-268 CNS = test system: SF-268 CNS
COLO 205 colon = test system: COLO 205 colon
IGROV1 ovarian = test system: IGROV1 ovarian
NCI/ADR-RES ovarian = test system: NCI/ADR-RES ovarian
TK-10 renal = test system: TK-10 renal
SF-295 CNS = test system: SF-295 CNS
SK-OV-3 ovarian = test system: SK-OV-3 ovarian
HCC-2998 colon = test system: HCC-2998 colon
SF-539 CNS = test system: SF-539 CNS
SN12C renal = test system: SN12C renal
CAKI-1 renal = test system: CAKI-1 renal
MALME-3M melanoma = test system: MALME-3M melanoma
UACC-257 melanoma = test system: UACC-257 melanoma
NCI-H460 lung = test system: NCI-H460 lung
K-562 leukemia = test system: K-562 leukemia
UACC-62 melanoma = test system: UACC-62 melanoma
MDA-MB-435 = test system: MDA-MB-435
SK-MEL-2 melanoma = test system: SK-MEL-2 melanoma
HCT-15 colon = test system: HCT-15 colon
NCI-H522 lung = test system: NCI-H522 lung
RPMI-8226 leukemia = test system: RPMI-8226 leukemia
HCT-116 colon = test system: HCT-116 colon
SNB-75 CNS = test system: SNB-75 CNS
LOX IMVI melanoma = test system: LOX IMVI melanoma
SNB-19 CNS = test system: SNB-19 CNS
MDA-MB-231 breast = test system: MDA-MB-231 breast
OVCAR-8 ovarian = test system: OVCAR-8 ovarian
A549 NSCLC = test system: A549 NSCLC
CCRF-CEM leukemia = test system: CCRF-CEM leukemia
ACHN renal = test system: ACHN renal
OVCAR-5 ovarian = test system: OVCAR-5 ovarian
HT29 colon = test system: HT29 colon
OVCAR-3 ovarian = test system: OVCAR-3 ovarian
EKVX NSCLC = test system: EKVX NSCLC
T-47D breast = test system: T-47D breast
NCI-H226 lung = test system: NCI-H226 lung
OVCAR-4 ovarian = test system: OVCAR-4 ovarian
HL-60(TB) leukemia = test system: HL-60(TB) leukemia
BT-549 breast = test system: BT-549 breast
NCI-H23 lung = test system: NCI-H23 lung
KM12 colon = test system: KM12 colon
M14 melanoma = test system: M14 melanoma
MOLT-4 leukemia = test system: MOLT-4 leukemia
SK-MEL-5 melanoma = test system: SK-MEL-5 melanoma
786-0 renal = test system: 786-0 renal
U251 CNS = test system: U251 CNS

Question: For `COc1cc(C(=O)/C=C/c2c(-c3cccs3)nc3sccn23)cc(OC)c1OC`, which GI50 (UO-31 renal) is on record?
Answer: 784 nM

Question: And the TGI (UO-31 renal)?
Answer: 4700 nM

Question: What about the GI50 (PC-3 prostate) of the same molecule?
Answer: 731 nM

Question: What about the TGI (PC-3 prostate) of the same molecule?
Answer: 6170 nM

Question: What about the GI50 (HOP-62 NSCLC) of the same molecule?
Answer: 2410 nM

Question: What about the TGI (HOP-62 NSCLC) of the same molecule?
Answer: 6440 nM

Question: And the GI50 (MCF7 breast)?
Answer: 724 nM

Question: And the TGI (MCF7 breast)?
Answer: 88400 nM

Question: What about the GI50 (SR leukemia) of the same molecule?
Answer: 264 nM

Question: And the TGI (SR leukemia)?
Answer: 2470 nM

Question: And the GI50 (DU-145 prostate)?
Answer: 518 nM

Question: And the TGI (DU-145 prostate)?
Answer: 1890 nM

Question: And the GI50 (SF-268 CNS)?
Answer: 1320 nM

Question: And the TGI (SF-268 CNS)?
Answer: 6300 nM

Question: And the GI50 (COLO 205 colon)?
Answer: 1650 nM

Question: What about the TGI (COLO 205 colon) of the same molecule?
Answer: 3320 nM

Question: And the GI50 (IGROV1 ovarian)?
Answer: 462 nM

Question: What about the TGI (IGROV1 ovarian) of the same molecule?
Answer: 1370 nM

Question: What about the GI50 (NCI/ADR-RES ovarian) of the same molecule?
Answer: 464 nM

Question: And the TGI (NCI/ADR-RES ovarian)?
Answer: 4060 nM

Question: And the GI50 (TK-10 renal)?
Answer: 2080 nM

Question: What about the TGI (TK-10 renal) of the same molecule?
Answer: > 100000 nM

Question: And the GI50 (SF-295 CNS)?
Answer: 955 nM

Question: What about the TGI (SF-295 CNS) of the same molecule?
Answer: 9940 nM

Question: And the GI50 (SK-OV-3 ovarian)?
Answer: 2150 nM

Question: What about the TGI (SK-OV-3 ovarian) of the same molecule?
Answer: 6150 nM

Question: And the GI50 (HCC-2998 colon)?
Answer: 814 nM

Question: And the TGI (HCC-2998 colon)?
Answer: 2000 nM

Question: What about the GI50 (SF-539 CNS) of the same molecule?
Answer: 1740 nM

Question: And the TGI (SF-539 CNS)?
Answer: 4260 nM

Question: What about the GI50 (SN12C renal) of the same molecule?
Answer: 1920 nM

Question: And the TGI (SN12C renal)?
Answer: 10800 nM

Question: What about the GI50 (CAKI-1 renal) of the same molecule?
Answer: 1790 nM

Question: What about the TGI (CAKI-1 renal) of the same molecule?
Answer: 17000 nM

Question: And the GI50 (MALME-3M melanoma)?
Answer: 3280 nM

Question: And the TGI (MALME-3M melanoma)?
Answer: 43400 nM

Question: And the GI50 (UACC-257 melanoma)?
Answer: 1140 nM

Question: And the TGI (UACC-257 melanoma)?
Answer: 3710 nM

Question: What about the GI50 (NCI-H460 lung) of the same molecule?
Answer: 600 nM

Question: And the TGI (NCI-H460 lung)?
Answer: 1990 nM

Question: And the GI50 (K-562 leukemia)?
Answer: 445 nM

Question: And the TGI (K-562 leukemia)?
Answer: > 100000 nM

Question: And the GI50 (UACC-62 melanoma)?
Answer: 1380 nM

Question: What about the TGI (UACC-62 melanoma) of the same molecule?
Answer: 3720 nM

Question: What about the GI50 (MDA-MB-435) of the same molecule?
Answer: 592 nM

Question: What about the TGI (MDA-MB-435) of the same molecule?
Answer: 60100 nM

Question: And the GI50 (SK-MEL-2 melanoma)?
Answer: 319 nM

Question: And the TGI (SK-MEL-2 melanoma)?
Answer: 1280 nM

Question: What about the GI50 (HCT-15 colon) of the same molecule?
Answer: 839 nM

Question: What about the TGI (HCT-15 colon) of the same molecule?
Answer: 3850 nM

Question: And the GI50 (NCI-H522 lung)?
Answer: 260 nM

Question: And the TGI (NCI-H522 lung)?
Answer: 866 nM

Question: What about the GI50 (RPMI-8226 leukemia) of the same molecule?
Answer: 448 nM

Question: What about the TGI (RPMI-8226 leukemia) of the same molecule?
Answer: 3680 nM

Question: What about the GI50 (HCT-116 colon) of the same molecule?
Answer: 1090 nM

Question: And the TGI (HCT-116 colon)?
Answer: 3990 nM

Question: And the GI50 (SNB-75 CNS)?
Answer: 1280 nM

Question: What about the TGI (SNB-75 CNS) of the same molecule?
Answer: 8160 nM

Question: And the GI50 (LOX IMVI melanoma)?
Answer: 1060 nM

Question: And the TGI (LOX IMVI melanoma)?
Answer: 2500 nM

Question: What about the GI50 (SNB-19 CNS) of the same molecule?
Answer: 2140 nM

Question: What about the TGI (SNB-19 CNS) of the same molecule?
Answer: 13500 nM

Question: What about the GI50 (MDA-MB-231 breast) of the same molecule?
Answer: 1550 nM

Question: What about the TGI (MDA-MB-231 breast) of the same molecule?
Answer: 9270 nM

Question: And the GI50 (OVCAR-8 ovarian)?
Answer: 651 nM

Question: What about the TGI (OVCAR-8 ovarian) of the same molecule?
Answer: 3700 nM

Question: What about the GI50 (A549 NSCLC) of the same molecule?
Answer: 1580 nM

Question: What about the TGI (A549 NSCLC) of the same molecule?
Answer: 5300 nM

Question: What about the GI50 (CCRF-CEM leukemia) of the same molecule?
Answer: 565 nM

Question: What about the TGI (CCRF-CEM leukemia) of the same molecule?
Answer: > 100000 nM

Question: And the GI50 (ACHN renal)?
Answer: 2160 nM

Question: What about the TGI (ACHN renal) of the same molecule?
Answer: 7520 nM

Question: What about the GI50 (OVCAR-5 ovarian) of the same molecule?
Answer: 4740 nM

Question: What about the TGI (OVCAR-5 ovarian) of the same molecule?
Answer: 27800 nM

Question: What about the GI50 (HT29 colon) of the same molecule?
Answer: 1120 nM

Question: What about the TGI (HT29 colon) of the same molecule?
Answer: 3960 nM

Question: And the GI50 (OVCAR-3 ovarian)?
Answer: 1010 nM

Question: And the TGI (OVCAR-3 ovarian)?
Answer: 2730 nM

Question: What about the GI50 (EKVX NSCLC) of the same molecule?
Answer: 2410 nM

Question: And the TGI (EKVX NSCLC)?
Answer: > 100000 nM

Question: What about the GI50 (T-47D breast) of the same molecule?
Answer: 789 nM

Question: And the TGI (T-47D breast)?
Answer: 4710 nM

Question: And the GI50 (NCI-H226 lung)?
Answer: 2460 nM

Question: What about the TGI (NCI-H226 lung) of the same molecule?
Answer: 7460 nM

Question: And the GI50 (OVCAR-4 ovarian)?
Answer: 1970 nM

Question: And the TGI (OVCAR-4 ovarian)?
Answer: 53200 nM

Question: What about the GI50 (HL-60(TB) leukemia) of the same molecule?
Answer: 1190 nM

Question: What about the TGI (HL-60(TB) leukemia) of the same molecule?
Answer: 4460 nM

Question: And the GI50 (BT-549 breast)?
Answer: 1790 nM

Question: And the TGI (BT-549 breast)?
Answer: 11400 nM

Question: What about the GI50 (NCI-H23 lung) of the same molecule?
Answer: 814 nM

Question: And the TGI (NCI-H23 lung)?
Answer: 6420 nM

Question: And the GI50 (KM12 colon)?
Answer: 342 nM

Question: What about the TGI (KM12 colon) of the same molecule?
Answer: 1090 nM

Question: What about the GI50 (M14 melanoma) of the same molecule?
Answer: 2510 nM

Question: What about the TGI (M14 melanoma) of the same molecule?
Answer: 27200 nM

Question: And the GI50 (MOLT-4 leukemia)?
Answer: 1020 nM

Question: And the TGI (MOLT-4 leukemia)?
Answer: 4450 nM

Question: What about the GI50 (SK-MEL-5 melanoma) of the same molecule?
Answer: 1060 nM

Question: And the TGI (SK-MEL-5 melanoma)?
Answer: 2490 nM

Question: And the GI50 (786-0 renal)?
Answer: 1530 nM

Question: What about the TGI (786-0 renal) of the same molecule?
Answer: 5940 nM

Question: And the GI50 (U251 CNS)?
Answer: 904 nM

Question: What about the TGI (U251 CNS) of the same molecule?
Answer: 5340 nM
